One assay addresses D(1A) dopamine receptor (Homo sapiens, UniProt P21728). Nature of the assay: DRUGMATRIX: Dopamine D1 radioligand binding (ligand: [3H] SCH-23390). It counts as cell membranes, CHO, Membrane. Conditions: Not Active = under 50% inhibition at 10 µM.
Assay [1] is described as follows: DRUGMATRIX: GABAA, Muscimol, Central radioligand binding (ligand: [3H] Muscimol). In kind it is cell membranes, Rattus norvegicus, Wistar, Brain, Membrane. Conditions: Not Active = under 50% inhibition at 10 µM.
The target in assay [2] is 5-hydroxytryptamine receptor 1B (Rattus norvegicus, UniProt P28564). It counts as cell membranes, Wistar, Cerebral cortex, Membrane. Also: in other assays of this panel Not Active means under 50% inhibition at 10 µM.
A further assay concerns the target T1, Adenosine receptor A1 (Homo sapiens, UniProt P30542).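 Also: radioligand binding assay at the adenosine A1 receptor, with DPCPX serving as the labelled ligand; in other assays of this panel Not Active means under 50% inhibition at 10 µM.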
T1 sequence (P30542 whole entry): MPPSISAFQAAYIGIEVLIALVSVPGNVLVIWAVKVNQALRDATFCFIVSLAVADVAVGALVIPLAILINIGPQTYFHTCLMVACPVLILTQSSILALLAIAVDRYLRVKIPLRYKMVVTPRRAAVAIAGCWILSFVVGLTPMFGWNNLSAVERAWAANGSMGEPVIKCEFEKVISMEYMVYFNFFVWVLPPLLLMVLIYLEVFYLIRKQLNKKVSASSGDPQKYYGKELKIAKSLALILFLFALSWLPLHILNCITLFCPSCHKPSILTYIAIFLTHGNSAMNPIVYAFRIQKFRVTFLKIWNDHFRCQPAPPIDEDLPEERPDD
It counts as cell membranes, CHO, Membrane. Particulars: cho.

The target of a further assay is Adenosine receptor A2a (Homo sapiens, UniProt P29274). Nature of the assay: DRUGMATRIX: Adenosine A2A radioligand binding (ligand: […]). In kind it is cell membranes, HEK293, Membrane. Particulars: hek293; Not Active = under 50% inhibition at 10 µM.

The IC50 is the concentration at which inhibition is half-maximal. As a reminder, the Ki is a dissociation constant, usually derived from enzyme kinetics or from competition with a known ligand.

Sequence of Adenosine receptor A2a (P29274 whole entry): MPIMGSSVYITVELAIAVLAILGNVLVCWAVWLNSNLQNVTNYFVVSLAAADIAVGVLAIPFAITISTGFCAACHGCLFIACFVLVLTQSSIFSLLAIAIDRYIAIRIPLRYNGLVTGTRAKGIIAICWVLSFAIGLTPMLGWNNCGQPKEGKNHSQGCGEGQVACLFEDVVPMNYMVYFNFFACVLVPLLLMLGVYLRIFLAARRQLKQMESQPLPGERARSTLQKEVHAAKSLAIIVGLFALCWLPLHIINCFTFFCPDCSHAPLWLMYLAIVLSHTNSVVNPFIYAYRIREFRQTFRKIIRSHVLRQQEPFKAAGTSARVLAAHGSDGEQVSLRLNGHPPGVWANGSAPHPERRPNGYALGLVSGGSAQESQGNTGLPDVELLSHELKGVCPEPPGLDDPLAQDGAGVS
Sequence of D(1A) dopamine receptor (P21728 whole entry): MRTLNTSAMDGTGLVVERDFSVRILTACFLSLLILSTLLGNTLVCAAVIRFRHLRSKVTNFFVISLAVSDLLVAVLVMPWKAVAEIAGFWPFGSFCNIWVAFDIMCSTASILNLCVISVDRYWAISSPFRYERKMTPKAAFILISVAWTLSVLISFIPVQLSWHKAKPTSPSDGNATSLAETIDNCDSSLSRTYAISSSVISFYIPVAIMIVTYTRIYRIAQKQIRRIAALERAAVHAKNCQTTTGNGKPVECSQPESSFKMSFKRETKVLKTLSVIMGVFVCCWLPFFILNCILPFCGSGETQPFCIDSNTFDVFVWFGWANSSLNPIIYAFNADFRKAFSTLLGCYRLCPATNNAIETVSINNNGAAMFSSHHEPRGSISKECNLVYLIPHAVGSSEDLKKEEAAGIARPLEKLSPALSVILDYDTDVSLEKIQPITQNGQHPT
Sequence of 5-hydroxytryptamine receptor 1B (P28564 whole entry): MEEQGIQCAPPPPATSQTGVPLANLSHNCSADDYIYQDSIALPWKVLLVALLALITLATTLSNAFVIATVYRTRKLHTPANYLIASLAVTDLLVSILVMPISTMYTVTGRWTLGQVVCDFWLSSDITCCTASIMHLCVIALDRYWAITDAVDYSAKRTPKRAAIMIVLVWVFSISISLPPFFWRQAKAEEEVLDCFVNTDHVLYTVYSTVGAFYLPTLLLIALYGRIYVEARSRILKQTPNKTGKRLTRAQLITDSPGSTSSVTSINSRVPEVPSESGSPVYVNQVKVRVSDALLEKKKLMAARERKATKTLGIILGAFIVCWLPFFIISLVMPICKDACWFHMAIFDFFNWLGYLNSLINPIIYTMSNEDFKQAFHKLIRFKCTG

For the compound `Cc1c(N)nc([C@H](CC(N)=O)NC[C@H](N)C(N)=O)nc1C(=O)N[C@H](C(=O)N[C@H](C)[C@@H](O)[C@H](C)C(=O)N[C@H](C(=O)NCCc1nc(-c2nc(C(=O)NCCC[S+](C)C)cs2)cs1)[C@@H](C)O)[C@@H](O[C@@H]1O[C@@H](CO)[C@@H](O)[C@H](O)[C@@H]1O[C@H]1O[C@H](CO)[C@@H](O)[C@H](OC(N)=O)[C@@H]1O)c1c[nH]cn1.[Br-]` [BLEOMYCIN A2], the IC50 result (on D(1A) dopamine receptor (cho); in assay [1]; in assay [2]; on Adenosine receptor A1; on Adenosine receptor A2a) was “Not Active” throughout. Also, in assay [1], the Ki entry was “Not Active”.

For `OC[C@H]1O[C@@H]2O[C@H]3[C@H](O)[C@@H](O)[C@@H](O[C@H]4[C@H](O)[C@@H](O)[C@@H](O[C@H]5[C@H](O)[C@@H](O)[C@@H](O[C@H]6[C@H](O)[C@@H](O)[C@@H](O[C@H]7[C@H](O)[C@@H](O)[C@@H](O[C@H]1[C@H](O)[C@H]2O)O[C@@H]7CO)O[C@@H]6CO)O[C@@H]5CO)O[C@@H]4CO)O[C@@H]3CO` [ALFADEX], the IC50 result (on D(1A) dopamine receptor (cho); in assay [1]; in assay [2]; against Adenosine receptor A1; at Adenosine receptor A2a) was “Not Active” in each case. Moreover, in assay [1], the Ki result is “Not Active”.

Regarding `O=C(O)CNCP(=O)(O)O` [GLYPHOSATE], the IC50 result (on D(1A) dopamine receptor (cho); in assay [1]; in assay [2]; against Adenosine receptor A1; at Adenosine receptor A2a) was “Not Active” throughout. The Ki entry in assay [1] is listed as “Not Active”.

Regarding `O=C(Nc1ccc(Cl)c(Cl)c1)c1cc(Cl)cc(Cl)c1O` [3,3',4',5-TETRACHLOROSALICYLANILIDE], the IC50 entry (at D(1A) dopamine receptor (cho); in assay [1]; in assay [2]; at Adenosine receptor A1; on Adenosine receptor A2a) was “Not Active” each time. For the same compound, in assay [1], the Ki entry was “Not Active”.

As for `COC(=O)Nc1nc2ccc(Sc3ccccc3)cc2[nH]1` [FENBENDAZOLE], the IC50 result (at D(1A) dopamine receptor (cho); in assay [1]; in assay [2]; against Adenosine receptor A1; at Adenosine receptor A2a) was “Not Active” in each case. For the same compound, in assay [1], the Ki entry was “Not Active”.

On to `Nc1ccc(C(=O)O)c(O)c1` [AMINOSALICYLIC ACID], for which the IC50 entry (on D(1A) dopamine receptor (cho); in assay [1]; in assay [2]; against Adenosine receptor A1; at Adenosine receptor A2a) was “Not Active” in each case. Further, the Ki result in assay [1] is recorded as “Not Active”.

As for `COC(=O)C[C@](O)(CCC(C)(C)O)C(=O)O[C@@H]1C(OC)=C[C@]23CCCN2CCc2cc4c(cc2[C@H]13)OCO4` [HARRINGTONINE], the IC50 entry (at D(1A) dopamine receptor (cho); in assay [1]; in assay [2]; against Adenosine receptor A1; on Adenosine receptor A2a) was “Not Active” in each case. Besides, the Ki result in assay [1] is listed as “Not Active”.

For `COc1cc(NC(C)CCCN)c2ncccc2c1` (stereo unspecified) [PRIMAQUINE], the IC50 result (at D(1A) dopamine receptor (cho); in assay [1]; in assay [2]; at Adenosine receptor A1; on Adenosine receptor A2a) was “Not Active” in each case. Further, the Ki entry in assay [1] is “Not Active”.

For `OC[C@H]1O[C@@H]2O[C@H]3[C@H](O)[C@@H](O)[C@@H](O[C@H]4[C@H](O)[C@@H](O)[C@@H](O[C@H]5[C@H](O)[C@@H](O)[C@@H](O[C@H]6[C@H](O)[C@@H](O)[C@@H](O[C@H]7[C@H](O)[C@@H](O)[C@@H](O[C@H]8[C@H](O)[C@@H](O)[C@@H](O[C@H]1[C@H](O)[C@H]2O)O[C@@H]8CO)O[C@@H]7CO)O[C@@H]6CO)O[C@@H]5CO)O[C@@H]4CO)O[C@@H]3CO` [BETADEX], the 50% inhibitory concentration (IC50) result (at D(1A) dopamine receptor (cho); in assay [1]; in assay [2]; against Adenosine receptor A1; on Adenosine receptor A2a) was “Not Active” each time. Also, the Ki result in assay [1] is recorded as “Not Active”.

On to `COc1cc([C@@H]2c3cc4c(cc3[C@H](O)[C@H]3COC(=O)[C@H]23)OCO4)cc(OC)c1OC` [PODOFILOX], for which the IC50 result (at D(1A) dopamine receptor (cho); in assay [1]; in assay [2]; against Adenosine receptor A1; on Adenosine receptor A2a) was “Not Active” each time. Also, the Ki entry in assay [1] is on record as “Not Active”.

As for `C[C@H]1C[C@H]2[C@@H]3CCC4=CC(=O)C=C[C@]4(C)[C@@]3(F)[C@@H](O)C[C@]2(C)[C@@]1(O)C(=O)CO` [BETAMETHASONE], the IC50 entry (at D(1A) dopamine receptor (cho); in assay [1]; in assay [2]; against Adenosine receptor A1; at Adenosine receptor A2a) was “Not Active” in each case. In addition, the Ki entry in assay [1] is listed as “Not Active”.

Regarding CARBOXYMETHYLCELLULOSE, the IC50 entry (at D(1A) dopamine receptor (cho); in assay [1]; in assay [2]; against Adenosine receptor A1; on Adenosine receptor A2a) was “Not Active” in each case. Moreover, the Ki result (on D(1A) dopamine receptor (cho); in assay [1]; in assay [2]; on Adenosine receptor A1; at Adenosine receptor A2a) was “Not Active” in each case.

For `NC(=O)CN1CCCC1=O`, the IC50 result (at D(1A) dopamine receptor (cho); in assay [1]; in assay [2]; at Adenosine receptor A1; on Adenosine receptor A2a) was “Not Active” throughout. Moreover, the Ki entry in assay [1] is reported as “Not Active”.

In the case of `CC(N)Cc1c[nH]c2ccc(OCc3cccs3)cc12` (stereo unspecified) [BW-723C86], the IC50 result at D(1A) dopamine receptor (cho) is “Not Active”; in assay [1], “Not Active”; in assay [2] (read-out: IC50), 421 nM; against Adenosine receptor A1, “Not Active”; on Adenosine receptor A2a it was “Not Active”. In addition, the results for the inhibition constant Ki entry in assay [1] and in assay [2] (read-out: Ki) were “Not Active” and 400 nM, respectively.

Turning to `CNC[C@H](O)c1ccc(O)c(O)c1` [EPINEPHRINE], the IC50 entry (at D(1A) dopamine receptor (cho); in assay [1]; in assay [2]; on Adenosine receptor A1; on Adenosine receptor A2a) was “Not Active” each time. The Ki entry in assay [1] is “Not Active”.

As for `c1ccc2c(c1)Nc1ccccc1S2` [PHENOTHIAZINE], the 50% inhibitory concentration (IC50) result (at D(1A) dopamine receptor (cho); in assay [1]; in assay [2]; against Adenosine receptor A1; on Adenosine receptor A2a) was “Not Active” throughout. In assay [1], the Ki result is “Not Active”.

On to `ClC1=C(Cl)[C@]2(Cl)[C@@H]3[C@@H]4C[C@@H]([C@H]5O[C@@H]45)[C@@H]3[C@@]1(Cl)C2(Cl)Cl` [DIELDRIN], for which the half-inhibitory concentration (IC50) result (on D(1A) dopamine receptor (cho); in assay [1]; in assay [2]; against Adenosine receptor A1; at Adenosine receptor A2a) was “Not Active” each time. In addition, the Ki entry in assay [1] is “Not Active”.

In the case of `CC(C)(c1ccc(O)cc1)c1ccc(O)cc1` [BISPHENOL A], the IC50 result (on D(1A) dopamine receptor (cho); in assay [1]; in assay [2]; on Adenosine receptor A1; on Adenosine receptor A2a) was “Not Active” each time. The Ki entry in assay [1] is “Not Active”.

On to `CN(Cc1cc(Br)cc(Br)c1N)C1CCCCC1` [BROMHEXINE], for which the IC50 entry (at D(1A) dopamine receptor (cho); in assay [1]; in assay [2]; on Adenosine receptor A1; at Adenosine receptor A2a) was “Not Active” throughout. In addition, in assay [1], the Ki result is “Not Active”.

Consider `c1ccc(Cn2ccnc2)cc1`, for which the IC50 result (at D(1A) dopamine receptor (cho); in assay [1]; in assay [2]; at Adenosine receptor A1; at Adenosine receptor A2a) was “Not Active” in each case. In addition, the Ki result in assay [1] is “Not Active”.

With `CCO` [ALCOHOL], the IC50 result (at D(1A) dopamine receptor (cho); in assay [1]; in assay [2]; on Adenosine receptor A1; on Adenosine receptor A2a) was “Not Active” each time. Besides, the Ki result in assay [1] is given as “Not Active”.

Turning to `CCN1CCN(C(=O)N[C@@H](C(=O)N[C@@H]2C(=O)N3[C@@H]2SC(C)(C)[C@@H]3C(=O)O)c2ccccc2)C(=O)C1=O` [PIPERACILLIN], the IC50 result (at D(1A) dopamine receptor (cho); in assay [1]; in assay [2]; on Adenosine receptor A1; on Adenosine receptor A2a) was “Not Active” in each case. Moreover, the Ki entry in assay [1] is reported as “Not Active”.

Consider `NC(=O)NC(=O)Cc1ccccc1` [PHENACEMIDE], for which the IC50 result (at D(1A) dopamine receptor (cho); in assay [1]; in assay [2]; against Adenosine receptor A1; at Adenosine receptor A2a) was “Not Active” each time. For the same compound, the Ki entry in assay [1] was “Not Active”.

With `CC(CN1c2ccccc2Sc2ccccc21)N(C)C` (stereo unspecified) [PROMETHAZINE], the IC50 on D(1A) dopamine receptor (read-out: IC50) was 2740 nM; in assay [1] it was “Not Active”; in assay [2], “Not Active”; at Adenosine receptor A1, “Not Active”; at Adenosine receptor A2a it was “Not Active”. The Ki on D(1A) dopamine receptor (read-out: Ki) is 1370 nM; in assay [1] it was “Not Active”.

Consider `Nc1ccc(Cc2ccc(N)cc2)cc1`, for which the IC50 entry (at D(1A) dopamine receptor (cho); in assay [1]; in assay [2]; against Adenosine receptor A1; on Adenosine receptor A2a) was “Not Active” throughout. Also, the Ki result in assay [1] is “Not Active”.

The record behind these values is ChEMBL document CHEMBL1909046, “DrugMatrix in vitro pharmacology data”.
